What all share (assay): NCI anticancer screen, dose series, 48 h
Assay [1] relates to CCRF-CEM leukemia.
In assay [2] the test system is DU-145 prostate.
Assay [3] has as its system HCC-2998 colon.
In assay [4] the test system is HT29 colon.
Assay [5] relates to IGROV1 ovarian.
Assay [6] concerns MOLT-4 leukemia.
Assay [7] relates to NCI-H23 lung.
Assay [8] concerns PC-3 prostate.
For assay [9], the system named is SNB-75 CNS.
The subject of assay [10] is UO-31 renal.

SMILES strings stand for the structures.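 48-hour exposure; five concentrations; linearly interpolated endpoints. GI50: concentration for 50% inhibition of growth. TGI: concentration producing complete growth inhibition.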 Bounds are passed on as bounds.

This note sets out measurements from PubChem BioAssay (NCI).

Regarding `CC(C)c1ccc2nc3ccc(C(=O)NCCN(C)C)cn3c(=O)c2c1`, the TGI in [1] is 32.1 µM; in assay [2] it was greater than 100 µM; in [3] it was 31.7 µM; in [4], 24.5 µM; in assay [5], greater than 100 µM; in [6], 49.8 µM. Besides, the TGI in assay [7] was found to be 33.9 µM; in assay [8], 30.6 µM; in assay [9], 22.5 µM; in assay [10] it was 29.5 µM.
As to `CCN(c1ccc(CO)c(Cl)c1)C(C)c1ccc(F)cc1` (stereo not given), the GI50 in assay [1] was 18 µM; in [2], 16.9 µM; in [3], 16.6 µM; in assay [4], 15.5 µM; in assay [5] it was 0.891 µM; in [6], 19.3 µM. For the same compound, the GI50 is 14 µM in [7], 13.1 µM in assay [8], 13 µM in assay [9] and 15.3 µM in assay [10]. The TGI in [1] came out at 41.2 µM; in assay [2], 31.2 µM; in [3] it was 32.8 µM; in assay [4], 30 µM; in assay [5], 4 µM; in assay [6], 40 µM. Besides, the TGI is 30.5 µM in assay [7], 26.7 µM in assay [8], 26.8 µM in assay [9] and 29.1 µM in assay [10].
Consider `COC(=O)c1ccc2c(c1)C(NC(C)=O)CCc1cc(OC)c(OC)c(OC)c1-2` (stereo not given), for which the TGI is greater than 35.6 µM in [1]; 0.0865 µM in assay [2]; 0.706 µM in assay [3]; 1.28 µM in assay [4]; greater than 41.1 µM in assay [5]; 51.6 µM in assay [6]. For the same compound, the TGI in assay [7] is 1.35 µM; in assay [8], greater than 36.9 µM; in assay [9] it was 15.1 µM; in assay [10], greater than 81 µM.
As to `COc1ccc2nc(-c3ccccc3)cc(Nc3cccc(/C(C)=N\O)c3)c2c1`, the GI50 is 58.7 µM in assay [1]; 6.46 µM in assay [2]; 46.2 µM in assay [3]; 28.2 µM in [4]; 24.4 µM in [5]; 6.18 µM in assay [6]. Besides, the GI50 is 22.4 µM in assay [7], 4.72 µM in [8], 4.49 µM in assay [9] and 9.66 µM in assay [10]. Further, the TGI in assay [1] is greater than 100 µM; in assay [2], 31.9 µM; in [3], greater than 100 µM; in assay [4], greater than 100 µM; in assay [5], greater than 100 µM; in assay [6], greater than 100 µM. Moreover, the TGI in assay [7] was greater than 100 µM; in assay [8], 26.3 µM; in [9] it was greater than 100 µM; in assay [10], greater than 100 µM.
With `CC1(C)CCC(C)(C)c2cc(C(=O)Nc3ccc(C(=O)O)cc3)ccc21`, the TGI was greater than 80.8 µM in assay [1]; greater than 73.6 µM in [2]; 37.2 µM in assay [3]; greater than 68.2 µM in assay [4]; 63.7 µM in assay [5]; greater than 76.8 µM in assay [6]. Further, the TGI in [7] is 37.8 µM; in assay [8], 51.7 µM; in assay [9], greater than 100 µM; in assay [10] it was 30.7 µM.
For `CC1(C)O[C@H]2OC3CCC(=O)CC3(O)[C@H]2O1` (stereo not given in full), the TGI in assay [1], in [2], in assay [3], in [4], in [5] and in assay [6] was greater than 100 µM throughout. In addition, the TGI in assay [7], in assay [8], in [9] and in assay [10] was greater than 100 µM each time.
For `Cc1ccc(C(=O)Nc2ccc(CN3CCN(C)CC3)c(C(F)(F)F)c2)cc1C#Cc1cnc(N)c2ccc(F)cc12`, the GI50 was 0.398 µM in [1]; 0.139 µM in [2]; 0.377 µM in assay [3]; 0.133 µM in assay [4]; 0.0575 µM in assay [5]; 0.0921 µM in [6]. The GI50 in [7] is 0.584 µM; in assay [8], 0.508 µM; in [9] it was 0.256 µM; in [10], 0.121 µM. Also, the TGI in assay [1] came to 1.82 µM; in [2] it was 0.554 µM; in assay [3], 0.798 µM; in assay [4], 0.865 µM; in assay [5], 0.501 µM; in [6], 0.671 µM. Also, the TGI in assay [7] was determined as 2.24 µM; in [8] it was 1.66 µM; in [9], 0.863 µM; in [10], 0.748 µM.
Regarding `Cn1cc(C2=C(c3cn(C)c4ccc(N)cc34)C(=O)NC2=O)c2ccccc21`, the GI50 was 6.95 µM in [1]; 12.3 µM in assay [2]; greater than 25 µM in assay [3]; 5.82 µM in [4]; 23.8 µM in assay [5]; 10.2 µM in assay [6]. In addition, the GI50 in [7] was 15.3 µM; in assay [8] it was 9 µM; in [9], 1.63 µM; in assay [10], 3.6 µM. In addition, the TGI in assay [1], in [2], in [3], in assay [4], in assay [5] and in assay [6] was greater than 25 µM in each case. In addition, the TGI was greater than 25 µM in [7], greater than 25 µM in assay [8], greater than 21.2 µM in assay [9] and greater than 25 µM in [10].
In the case of `CC1(C)N=C(N)N=C(N)N1c1ccc(CCc2ccccc2)c(Cl)c1`, the GI50 is 0.0597 µM in [1]; 0.0911 µM in [2]; 0.361 µM in [3]; 0.0531 µM in assay [4]; 0.0668 µM in assay [5]; 0.0648 µM in assay [6]. The GI50 was 0.0791 µM in assay [7], 0.0916 µM in [8], 0.517 µM in [9] and 8.12 µM in assay [10]. Besides, the TGI in assay [1] turned out to be 15.3 µM; in [2] it was 15.8 µM; in assay [3], 13.3 µM; in assay [4], 12.7 µM; in [5] it was 15.7 µM; in [6], 13.5 µM. Also, the TGI in [7] is 15 µM; in [8], 12.1 µM; in assay [9], 12.7 µM; in assay [10], greater than 100 µM.
